Results on one compound are retold here after patent publication EP2296651B1, “5-HYDROXYMETHYL-OXAZOLIDIN-2-ONE DERIVATIVES FOR TREATING BACTERIAL INTESTINAL DISEASES” (Actelion Pharmaceuticals Ltd., priority 2008, dated 2009).

In one experiment the test system is C. difficile ATCC 43596. Briefly: Broth microdilution MIC, anaerobic. It counts as cell-based, Clostridium difficile. Conditions: Clostridioides difficile, ATCC43596, 48h at 37°C, read-out: MIC regarding C. difficile ATCC 43596.
For another experiment, the system named is C. difficile ATCC 9689. Briefly: Broth microdilution MIC, anaerobic. The format is cell-based, Clostridium difficile. The settings on record: Clostridioides difficile, ATCC9689, 48h at 37°C, read-out: MIC regarding C. difficile ATCC 9689. (In general: Dilution methods test growth across graded concentrations, often in twofold steps.)
The subject of another experiment is C. perfringens DSM 756. Briefly: microbe, parasite or virus in culture. It counts as cell-based. Conditions: Clostridium perfringens, DSM756, 48 h, read-out: MIC regarding C. perfringens DSM 756.
The subject of experiment [1] is 209 diverse clinical isolates of C. difficile. Briefly: CLSI agar dilution MIC, clinical isolates. The settings on record: Clostridioides difficile, 48 h; 209 clinical isolates of C. difficile; read-out: MIC90. The format is cell-based, Clostridium difficile. A general note: In agar dilution the substance is mixed into plates at graded concentrations.
Experiment [2] relates to Bacteroides vulgatus A-989 ATCC 8482. Briefly: Agar dilution MIC, anaerobic strains. It counts as cell-based. Conditions: Phocaeicola vulgatus, ATCC8482, 48 h.
Experiment [3] deals with Bacteroides fragilis A-502 T 7403. Briefly: Agar dilution MIC, anaerobic strains. The format is cell-based. Conditions: A502T7403, 48 h.
For experiment [4], the system named is Bacteroides fragilis A-348 T 8673. Briefly: Agar dilution MIC, anaerobic strains. It counts as cell-based. The settings on record: A348T8673, 48 h.
The test system of experiment [5] is Bacteroides fragilis A-294 T 9174. Briefly: Agar dilution MIC, anaerobic strains. The format is cell-based. Conditions: A294T9174, 48 h.
Experiment [6] deals with Bacteroides fragilis A-293 B 2518. Briefly: Agar dilution MIC, anaerobic strains. It counts as cell-based. The settings on record: A293B2518, 48 h.
The subject of experiment [7] is Lactococcus lactis A-1256 DSM 20069. Briefly: Agar dilution MIC, anaerobic strains. The format is cell-based.
In experiment [8] the test system is C. difficile strain NC 13366. The format is cell-based. Conditions: 1 and 8 µg/ml; supernatants at day 5; high density stationary phase cultures.
In another experiment the test system is S. aureus ATCC 29213. Briefly: Broth microdilution MIC, aerobic Gram-positive bacteria. Conditions: Staphylococcus aureus, ATCC29213, 48 h.
A further experiment concerns S. aureus A-798 (MRSA). The experiment is described as above. The settings on record: Staphylococcus aureus, 48 h.
The test system of experiment [9] is S. aureus ATCC 43300 (MRSA). Described as above. The settings on record: Staphylococcus aureus, 48 h.
The next experiment relates to S. aureus S1 (LZD-R). The description is as above. The settings on record: Staphylococcus aureus, 48 h.
The next experiment has as its system E. faecium H 7937. Described as above. Conditions: Enterococcus faecium, H7937, 48 h.
A further experiment concerns E. faecium A 962. The description is as above. The settings on record: Enterococcus faecium, A962, 48 h.

Values after ≈ are worked out from the molar mass of the structure shown.

Usually MIC90 stands for the lowest concentration that inhibits either 90% of growth or 90% of the strains tested, depending on the study. On to `O=C(O)c1cn(C2CC2)c2cc(N3CCC(O)(COc4ccc(N5C[C@H](CO)OC5=O)cc4F)CC3)c(F)cc2c1=O` [Example 1, 1-cyclopropyl-6-fluoro-7-{4-[2-fluoro-4-((R)-5-hydroxymethyl-2-oxo-oxazolidin-3-yl)-phenoxymethyl]-4-hydroxy-piperidin-1-yl}-4-oxo-1,4-dihydro-quinoline-3-carboxylic acid], for which the MIC in the experiment with C. difficile ATCC 43596 is 0.125 µg/mL (≈ 0.213 µM); in the experiment on C. difficile ATCC 9689, 0.125 µg/mL (≈ 0.213 µM); in the experiment on C. perfringens DSM 756, at most 0.03 µg/mL; in experiment [2] it was 2 µg/mL (≈ 3.42 µM); in experiment [3] it was 4 µg/mL (≈ 6.83 µM); in experiment [4], 2 µg/mL (≈ 3.42 µM). In addition, the MIC in [5] turned out to be 4 µg/mL (≈ 6.83 µM); in [6] it was 4 µg/mL (≈ 6.83 µM); in [7] (DSM20069, 48 h, Lactococcus lactis A-1256, DSM 20069), 0.5 µg/mL (≈ 0.854 µM); against S. aureus ATCC 29213, 0.25 µg/mL (≈ 0.427 µM); with S. aureus A-798 (MRSA), 0.25 µg/mL (≈ 0.427 µM); in experiment [9], 0.25 µg/mL (≈ 0.427 µM). Moreover, the MIC turned out to be 1 µg/mL (≈ 1.71 µM) in the experiment on S. aureus S1 (LZD-R), 0.25 µg/mL (≈ 0.427 µM) against E. faecium H 7937 and 0.5 µg/mL (≈ 0.854 µM) against E. faecium A 962. Further, the MIC90 in experiment [1] was 0.25 µg/mL (≈ 0.427 µM). Further, the “less activity against Lactococcus lactis A-1256 compared to the compound of Example 5 of WO 2005/058888” value in experiment [7] (versus R1) was 8 times. The “de novo toxin A production” value in experiment [8] is “inhibited de novo toxin A production”.
